Common to all, as to type: biochemical
One assay has as its target T1, PI3K alpha (Homo sapiens, UniProt P42336).
T1 construct: purchased Invitrogen Corp., Carlsbad, CA, USA
As to the kind of experiment: Luciferase-based luminescence assay (KinaseGlo), PI3K alpha enzymatic activity. As to conditions: inhibition of enzymatic activity, 25 μM ATP, read-out: IC50 p110α. The protocol:
(§1) PI3K catalyzes the conversion of phosphatidylinositol-4,5-bisphosphate (PIP2) and ATP to phosphatidylinositol-3,4,5-trisphosphate (PIP3) and ADP. For all assays, the reaction buffer comprised 50 mM HEPES, pH 7.5, 3 mM MgCl2, 1 mM EGTA, 100 mM NaCl, 0.03% CHAPS and 2 mM DTT. Compounds for testing were dissolved and serially diluted in 100% DMSO (total of 10 concentrations), then diluted 1:25 in reaction buffer.
(§2) PI3K alpha and PI3K delta enzymatic activity was determined by measuring the amount of ATP consumed following the kinase reaction using a luciferase-based luminescence assay (KinaseGlo®, Promega Corp., Madison, WI, USA). PI3K enzyme solutions were prepared by diluting PI3K alpha (Invitrogen Corp., Carlsbad, CA, USA) or PI3K delta (Millipore, Billerica, MA, USA) in reaction buffer, to 4× the final assay concentration (final concentrations of enzymes were 1.65 nM and 6.86 nM for PI3K alpha and PI3K delta, respectively). A substrate solution was prepared by mixing PIP2 and ATP in reaction buffer at 2× the final assay concentration (final concentrations were 50 μM and 25 μM for PIP2 and ATP respectively). 2.5 μL each of the compound and kinase mixtures were added to individual wells of white low volume 384-well assay plates and mixed by shaking. The reactions were started by adding 5 μL of substrate mixture per well and shaking. The assay plates were covered and reactions were allowed to proceed for 1 hour (PI3K alpha) or 2 hours (PI3K delta), after which 10 μL of Kinase Glo® reagent was added. The plates were briefly centrifuged and incubated for 10 minutes, after which luminescence was measured using a FlexStation plate reader (Molecular Devices, Sunnyvale, CA, USA). IC50 values were determined by curve fitting using Graphpad Prism software (Graphpad Software, La Jolla, CA, USA).

In another assay the target is T2, PI3K delta (Homo sapiens, UniProt O00329).
T2 construct: purchased Millipore, Billerica, MA, USA
T2 sequence (O00329 whole entry, species assumed): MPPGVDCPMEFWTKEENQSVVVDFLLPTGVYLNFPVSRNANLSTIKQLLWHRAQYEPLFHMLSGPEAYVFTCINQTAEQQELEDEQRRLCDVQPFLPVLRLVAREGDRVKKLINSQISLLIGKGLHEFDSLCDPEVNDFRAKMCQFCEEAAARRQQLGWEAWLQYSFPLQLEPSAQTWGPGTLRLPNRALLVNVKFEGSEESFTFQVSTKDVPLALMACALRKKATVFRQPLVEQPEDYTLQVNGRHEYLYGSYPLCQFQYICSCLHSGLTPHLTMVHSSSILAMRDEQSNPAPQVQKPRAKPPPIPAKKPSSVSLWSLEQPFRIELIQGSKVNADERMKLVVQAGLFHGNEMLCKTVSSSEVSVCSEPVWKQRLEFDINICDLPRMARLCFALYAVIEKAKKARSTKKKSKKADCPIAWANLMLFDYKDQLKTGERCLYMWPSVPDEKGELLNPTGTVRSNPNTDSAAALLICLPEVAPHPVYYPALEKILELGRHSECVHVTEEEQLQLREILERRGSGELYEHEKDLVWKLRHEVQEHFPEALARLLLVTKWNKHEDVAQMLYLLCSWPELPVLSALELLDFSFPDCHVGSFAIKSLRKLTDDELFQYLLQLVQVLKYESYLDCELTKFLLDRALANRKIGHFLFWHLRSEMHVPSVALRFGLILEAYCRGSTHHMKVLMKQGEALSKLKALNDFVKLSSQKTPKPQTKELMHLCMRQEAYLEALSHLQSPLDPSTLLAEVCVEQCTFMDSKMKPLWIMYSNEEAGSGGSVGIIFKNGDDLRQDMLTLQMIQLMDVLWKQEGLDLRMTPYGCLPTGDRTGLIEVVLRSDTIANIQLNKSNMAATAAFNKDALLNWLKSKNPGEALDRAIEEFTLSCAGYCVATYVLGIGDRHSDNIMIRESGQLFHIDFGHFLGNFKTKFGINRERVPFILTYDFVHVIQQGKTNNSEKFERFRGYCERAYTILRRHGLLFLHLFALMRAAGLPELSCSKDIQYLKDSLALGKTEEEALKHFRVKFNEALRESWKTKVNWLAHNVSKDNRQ
T2 sequence (P27986 whole entry partner, species assumed): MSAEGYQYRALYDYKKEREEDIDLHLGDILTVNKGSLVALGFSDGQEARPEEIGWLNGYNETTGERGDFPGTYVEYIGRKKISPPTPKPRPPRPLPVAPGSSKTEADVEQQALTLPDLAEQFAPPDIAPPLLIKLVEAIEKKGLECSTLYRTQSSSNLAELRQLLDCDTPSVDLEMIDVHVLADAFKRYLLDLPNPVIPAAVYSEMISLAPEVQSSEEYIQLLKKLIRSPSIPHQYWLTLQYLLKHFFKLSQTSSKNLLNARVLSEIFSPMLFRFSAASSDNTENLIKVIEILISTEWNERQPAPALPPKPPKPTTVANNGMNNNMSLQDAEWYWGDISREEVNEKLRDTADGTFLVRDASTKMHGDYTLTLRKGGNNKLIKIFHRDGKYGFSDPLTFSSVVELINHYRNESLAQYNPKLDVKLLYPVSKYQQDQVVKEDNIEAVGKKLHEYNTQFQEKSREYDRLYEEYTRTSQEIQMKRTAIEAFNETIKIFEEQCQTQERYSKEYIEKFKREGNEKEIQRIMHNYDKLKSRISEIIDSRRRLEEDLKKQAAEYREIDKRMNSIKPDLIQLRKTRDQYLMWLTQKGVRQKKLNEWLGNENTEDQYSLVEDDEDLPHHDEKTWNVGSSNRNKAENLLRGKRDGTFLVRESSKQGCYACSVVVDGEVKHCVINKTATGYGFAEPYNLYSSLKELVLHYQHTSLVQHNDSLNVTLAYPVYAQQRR
As to the kind of experiment: Luciferase-based luminescence assay (KinaseGlo), PI3K delta enzymatic activity. The note with it: for IC50: inhibition of enzymatic activity, KinaseGlo, 25 μM ATP, read-out: IC50 p110δ; for α/δ ratio: ratio of enzymatic IC50 against PI3Kα over IC50 against PI3Kδ; for β/δ ratio / γ/δ ratio: ratio of enzymatic IC50 values, Table 1. How it is done: as §1, §2
In general terms: In Kinase-Glo more light means more ATP remaining.

A further assay has as its target T3, PI3K beta (Homo sapiens, UniProt P42338).
T3 construct: purchased Millipore, Billerica, MA, USA
Description: Luciferase-based luminescence assay (ADP Glo), PI3K beta enzymatic activity. The note with it: for IC50: inhibition of enzymatic activity, ADP Glo, 25 μM ATP, read-out: IC50 p110β; for α/β ratio: ratio of enzymatic IC50 values, Table 1. The protocol:
as §1
(§3) PI3K beta and gamma enzymatic activity was determined by measuring the amount of ADP produced following the kinase reaction using a luciferase-based luminescence assay (ADP Glo®, Promega Corp., Madison, WI, USA). PI3K enzyme solutions were prepared by diluting PI3K beta (Millipore, Billerica, MA, USA) or PI3K gamma (Invitrogen Corp., Carlsbad, CA, USA) in reaction buffer, to 4× the final assay concentration (final concentrations of enzymes were 4.8 nM and 7.6 nM for PI3K beta and PI3K gamma respectively). A substrate solution was prepared by mixing PIP2 and ATP in reaction buffer at 2× the final assay concentration (final concentrations were 50 μM and 25 μM for PIP2 and ATP respectively). 2.5 μL each of the compound and kinase mixtures were added to individual wells of white low volume 384-well assay plates and mixed by shaking. The reactions were started by adding 5 μL of substrate mixture per well and shaking. The assay plates were covered and reactions were allowed to proceed for 1 hour. Then, 5 μL of reaction mix was transferred to another white low volume 384-well plate, and 5 μL of ADP-Glo™ reagent was added. The plates were briefly centrifuged and incubated for 40 minutes, after which 10 μL of kinase detection buffer was added. The plates then were centrifuged briefly, shaken slowly and equilibrated at room temperature for 30 minutes, after which luminescence was measured using a FlexStation plate reader (Molecular Devices, Sunnyvale, CA, USA). IC50 values were determined by curve fitting using Graphpad Prism software (Graphpad Software, La Jolla, CA, USA).
A general note: In ADP-Glo the light output rises with the ADP produced.

For the next assay, the target named is T4, PI3K gamma (Homo sapiens, UniProt P48736).
T4 construct: purchased Invitrogen Corp., Carlsbad, CA, USA
T4 sequence (P48736 whole entry, species assumed): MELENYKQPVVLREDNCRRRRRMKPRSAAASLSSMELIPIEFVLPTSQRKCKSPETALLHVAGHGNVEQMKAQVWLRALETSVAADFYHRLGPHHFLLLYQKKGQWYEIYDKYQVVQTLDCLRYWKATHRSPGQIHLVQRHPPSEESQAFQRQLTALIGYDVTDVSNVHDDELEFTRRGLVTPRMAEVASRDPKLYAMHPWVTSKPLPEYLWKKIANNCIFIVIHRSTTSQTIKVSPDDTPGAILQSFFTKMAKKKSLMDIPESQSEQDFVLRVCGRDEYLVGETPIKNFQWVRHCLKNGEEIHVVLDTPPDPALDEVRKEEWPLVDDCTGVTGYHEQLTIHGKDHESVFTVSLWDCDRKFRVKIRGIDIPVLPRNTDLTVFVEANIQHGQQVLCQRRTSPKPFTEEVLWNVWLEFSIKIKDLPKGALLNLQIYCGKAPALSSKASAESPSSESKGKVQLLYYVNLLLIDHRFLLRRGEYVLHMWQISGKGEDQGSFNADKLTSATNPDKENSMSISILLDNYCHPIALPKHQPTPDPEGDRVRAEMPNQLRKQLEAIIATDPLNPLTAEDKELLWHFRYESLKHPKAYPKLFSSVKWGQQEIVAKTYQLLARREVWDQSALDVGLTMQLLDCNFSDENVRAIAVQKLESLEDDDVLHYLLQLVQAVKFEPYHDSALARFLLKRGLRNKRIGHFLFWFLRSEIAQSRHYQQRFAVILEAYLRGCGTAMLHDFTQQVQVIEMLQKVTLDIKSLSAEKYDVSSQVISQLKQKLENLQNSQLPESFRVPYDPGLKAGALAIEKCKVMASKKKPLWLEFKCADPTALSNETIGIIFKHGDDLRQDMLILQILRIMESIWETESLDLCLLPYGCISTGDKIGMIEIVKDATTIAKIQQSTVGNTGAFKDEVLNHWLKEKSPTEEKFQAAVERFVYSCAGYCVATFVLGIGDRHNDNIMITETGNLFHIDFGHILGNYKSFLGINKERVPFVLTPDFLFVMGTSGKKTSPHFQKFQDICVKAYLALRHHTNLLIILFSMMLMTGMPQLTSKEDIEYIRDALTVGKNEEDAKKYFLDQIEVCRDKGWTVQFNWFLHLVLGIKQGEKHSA
As to the kind of experiment: Luciferase-based luminescence assay (ADP Glo), PI3K gamma enzymatic activity. The note with it: inhibition of enzymatic activity, 25 μM ATP, read-out: IC50 p110γ. The protocol:
as §1, §3

The next assay addresses mTOR (Homo sapiens, UniProt P42345). Description: mTOR inhibition (Table 1). As to conditions: Table 1, no method described.

The IC50 is the concentration needed to halve the response being measured.

T3 sequence (P42338 whole entry, species assumed): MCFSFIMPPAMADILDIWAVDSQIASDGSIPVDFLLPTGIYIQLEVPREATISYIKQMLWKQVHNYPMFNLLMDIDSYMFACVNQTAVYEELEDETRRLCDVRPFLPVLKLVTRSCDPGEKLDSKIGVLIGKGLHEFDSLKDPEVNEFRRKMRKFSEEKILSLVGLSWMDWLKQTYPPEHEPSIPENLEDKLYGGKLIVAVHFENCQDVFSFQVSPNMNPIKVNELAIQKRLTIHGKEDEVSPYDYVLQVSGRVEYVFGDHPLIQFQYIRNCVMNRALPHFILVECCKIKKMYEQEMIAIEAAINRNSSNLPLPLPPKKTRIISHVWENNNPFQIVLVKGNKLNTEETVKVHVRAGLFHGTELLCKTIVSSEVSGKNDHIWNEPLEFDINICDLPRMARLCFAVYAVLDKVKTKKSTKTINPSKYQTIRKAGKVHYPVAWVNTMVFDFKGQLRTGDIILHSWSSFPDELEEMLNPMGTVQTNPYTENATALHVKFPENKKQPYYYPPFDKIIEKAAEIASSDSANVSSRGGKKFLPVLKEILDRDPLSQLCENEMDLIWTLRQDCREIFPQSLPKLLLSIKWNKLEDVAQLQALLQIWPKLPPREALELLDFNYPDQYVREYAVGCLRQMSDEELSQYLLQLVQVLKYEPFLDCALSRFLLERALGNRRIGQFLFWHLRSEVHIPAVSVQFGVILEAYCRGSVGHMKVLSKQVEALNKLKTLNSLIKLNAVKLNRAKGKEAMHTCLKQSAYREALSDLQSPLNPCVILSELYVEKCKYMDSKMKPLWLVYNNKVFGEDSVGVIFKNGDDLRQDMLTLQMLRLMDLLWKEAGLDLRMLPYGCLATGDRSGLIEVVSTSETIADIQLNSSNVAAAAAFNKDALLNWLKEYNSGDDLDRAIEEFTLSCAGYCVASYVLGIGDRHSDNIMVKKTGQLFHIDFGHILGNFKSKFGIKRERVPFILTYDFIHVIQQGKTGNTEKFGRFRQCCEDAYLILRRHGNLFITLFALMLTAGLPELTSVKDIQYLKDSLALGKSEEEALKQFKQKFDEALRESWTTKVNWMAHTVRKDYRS
T3 sequence (P27986 whole entry partner, species assumed): as the sequence (P27986 whole entry partner, species assumed) above
T1 sequence (P42336 whole entry, species assumed): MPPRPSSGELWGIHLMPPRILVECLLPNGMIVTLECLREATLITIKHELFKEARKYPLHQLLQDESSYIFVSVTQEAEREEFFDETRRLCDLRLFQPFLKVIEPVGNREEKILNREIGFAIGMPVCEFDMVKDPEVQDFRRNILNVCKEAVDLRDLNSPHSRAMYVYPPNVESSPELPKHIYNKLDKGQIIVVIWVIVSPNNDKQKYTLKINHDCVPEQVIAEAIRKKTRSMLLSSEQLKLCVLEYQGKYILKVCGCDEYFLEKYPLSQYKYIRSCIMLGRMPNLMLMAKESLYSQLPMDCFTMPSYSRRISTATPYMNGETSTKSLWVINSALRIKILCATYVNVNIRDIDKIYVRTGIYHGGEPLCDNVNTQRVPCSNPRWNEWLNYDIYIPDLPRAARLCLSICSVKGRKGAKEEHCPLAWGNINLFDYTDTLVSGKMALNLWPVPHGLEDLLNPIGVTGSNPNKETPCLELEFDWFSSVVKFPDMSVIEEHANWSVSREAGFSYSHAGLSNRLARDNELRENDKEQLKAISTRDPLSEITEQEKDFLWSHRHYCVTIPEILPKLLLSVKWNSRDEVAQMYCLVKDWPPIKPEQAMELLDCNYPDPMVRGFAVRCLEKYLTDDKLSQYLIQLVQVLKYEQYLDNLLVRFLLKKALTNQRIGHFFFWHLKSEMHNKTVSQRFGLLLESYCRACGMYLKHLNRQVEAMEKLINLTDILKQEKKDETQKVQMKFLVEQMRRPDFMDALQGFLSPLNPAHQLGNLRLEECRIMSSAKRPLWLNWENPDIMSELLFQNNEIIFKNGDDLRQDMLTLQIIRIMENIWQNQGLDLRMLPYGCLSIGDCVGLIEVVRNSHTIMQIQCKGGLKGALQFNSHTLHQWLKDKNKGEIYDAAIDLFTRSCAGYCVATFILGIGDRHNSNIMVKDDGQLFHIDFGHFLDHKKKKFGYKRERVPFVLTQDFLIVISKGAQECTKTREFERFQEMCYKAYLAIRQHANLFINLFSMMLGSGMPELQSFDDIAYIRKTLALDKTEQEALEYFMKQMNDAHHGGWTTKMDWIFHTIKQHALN
T1 sequence (P27986 whole entry partner, species assumed): as the sequence (P27986 whole entry partner, species assumed) above

Regarding `COC(=O)[C@H](Nc1nc(N2CCOCC2)nc(-n2c(C(F)F)nc3ccccc32)n1)c1ccccc1` [Compound A11, (R)-methyl 2-((4-(2-(difluoromethyl)-1H-benzo[d]imidazol-1-yl)-6-morpholino-1,3,5-triazin-2-yl)amino)-2-phenylacetate], the 50% inhibitory concentration (IC50) on PI3K alpha lay within 200 to 500 nM. Besides, at PI3K delta, the IC50 is not above 100 nM and the α/δ ratio result is “D’”.

In the case of `CC(C)(CNc1nc(N2CCOCC2)nc(-n2c(C(F)F)nc3ccccc32)n1)c1ccccc1` [Compound A29, 4-(2-(difluoromethyl)-1H-benzo[d]imidazol-1-yl)-N-(2-methyl-2-phenylpropyl)-6-morpholino-1,3,5-triazin-2-amine], the IC50 on PI3K alpha was more than 500 nM; at PI3K beta, more than 500 nM; at PI3K gamma it was more than 500 nM; at PI3K delta, 200 to 500 nM; at mTOR, more than 500 nM. Further, the α/β ratio result on PI3K beta is “D’”. In addition, the α/δ ratio result at PI3K delta was “C’”. Further, the β/δ ratio result at PI3K delta is on record as “A’”. For the same compound, the γ/δ ratio entry on PI3K delta was “D’”.

For `C[C@@H](Nc1nc(N2CCOCC2)nc(-n2c(C(F)F)nc3ccccc32)n1)c1ccccc1` [Compound A3, (R)-4-(2-(difluoromethyl)-1H-benzo[d]imidazol-1-yl)-6-morpholino-N-(1-phenylethyl)-1,3,5-triazin-2-amine], the IC50 on PI3K alpha is more than 500 nM. In addition, at PI3K delta, the IC50 was more than 500 nM and the α/δ ratio entry is given as “D’”.

On to `CC[C@@H](Nc1nc(N2CCOCC2)nc(-n2c(C(F)F)nc3ccccc32)n1)c1ccccc1` [Compound A6, (R)-4-(2-(difluoromethyl)-1H-benzo[d]imidazol-1-yl)-6-morpholino-N-(1-phenylpropyl)-1,3,5-triazin-2-amine], for which the concentration for half-maximal inhibition (IC50) at PI3K alpha and on PI3K delta was more than 500 nM each time. The α/δ ratio entry on PI3K delta is “B’”.

On to `CC(C)(Cc1ccccc1Br)Nc1nc(N2CCOCC2)nc(-n2c(C(F)F)nc3ccccc32)n1` [Compound A17, 4-(2-(difluoromethyl)-1H-benzo[d]imidazol-1-yl)-N-(1-(2-bromophenyl)-2-methylpropan-2-yl)-6-morpholino-1,3,5-triazin-2-amine], for which the half-inhibitory concentration (IC50) on PI3K alpha and on mTOR was more than 500 nM each time.

For `COc1ccc(C(C)(C)Nc2nc(N3CCOCC3)nc(-n3c(C(F)F)nc4ccccc43)n2)cc1` [Compound A9, 4-(2-(difluoromethyl)-1H-benzo[d]imidazol-1-yl)-N-(2-(4-methoxyphenyl)propan-2-yl)-6-morpholino-1,3,5-triazin-2-amine], the half-maximal inhibitory concentration (IC50) on PI3K alpha was more than 500 nM. On PI3K delta, the IC50 was more than 500 nM and the α/δ ratio result is reported as “D’”.

Turning to `CC(C)(Nc1nc(N2CCOCC2)nc(-n2c(C(F)F)nc3ccccc32)n1)C1(c2ccccc2)CC1` [Compound A30, 4-(2-(difluoromethyl)-1H-benzo[d]imidazol-1-yl)-N-(2-(1-phenylcyclopropyl)propan-2-yl)-6-morpholino-1,3,5-triazin-2-amine], the IC50 on PI3K alpha is more than 500 nM; at PI3K beta, 200 to 500 nM; on PI3K gamma, more than 500 nM; at PI3K delta, 100 to 200 nM; against mTOR, more than 500 nM. Further, at PI3K beta, the α/β ratio entry is on record as “B’”. Moreover, the α/δ ratio entry at PI3K delta was “A’”. Besides, at PI3K delta, the β/δ ratio entry is given as “D’”. Moreover, the γ/δ ratio result at PI3K delta was “D’”.

As for `FC(F)c1nc2ccccc2n1-c1nc(NCc2ccccc2)nc(N2CCOCC2)n1` [Ref 1, N-benzyl-4-(2-(difluoromethyl)-1H-benzo[d]imidazol-1-yl)-6-morpholino-1,3,5-triazin-2-amine, reference compound], the IC50 on PI3K alpha fell in the range of 100 to 200 nM. For the same compound, on PI3K delta, the IC50 is 100 to 200 nM and the α/δ ratio entry is reported as “D’”.

Regarding `CC(C)(Nc1nc(N2CCOCC2)nc(-n2c(C(F)F)nc3ccccc32)n1)c1ccccc1` [Compound A7, 4-(2-(difluoromethyl)-1H-benzo[d]imidazol-1-yl)-6-morpholino-N-(2-phenylpropan-2-yl)-1,3,5-triazin-2-amine], the IC50 at PI3K alpha is more than 500 nM. For the same compound, on PI3K beta, the half-inhibitory concentration (IC50) was more than 500 nM and the α/β ratio result was “D’”. For the same compound, at PI3K gamma, the IC50 is 200 to 500 nM. Also, on PI3K delta, the 50% inhibitory concentration (IC50) was in the range of 100 to 200 nM, the α/δ ratio result is “C’”, the β/δ ratio entry is recorded as “A’” and the γ/δ ratio result is reported as “D’”. The IC50 on mTOR was more than 500 nM.

For the compound `CC[C@H](Nc1nc(N2CCOCC2)nc(-n2c(C(F)F)nc3ccccc32)n1)c1ccccc1` [Compound A5, (S)-4-(2-(difluoromethyl)-1H-benzo[d]imidazol-1-yl)-6-morpholino-N-(1-phenylpropyl)-1,3,5-triazin-2-amine], the IC50 on PI3K alpha is more than 500 nM; on PI3K beta it was more than 500 nM; at PI3K gamma it was 100 to 200 nM; on PI3K delta, 200 to 500 nM; at mTOR it was more than 500 nM. Moreover, at PI3K beta, the α/β ratio result is on record as “D’”. Also, on PI3K delta, the α/δ ratio result is reported as “C’”. The β/δ ratio result on PI3K delta is “C’”. Further, the γ/δ ratio entry at PI3K delta is “D’”.

With `CC(C)(Cc1ccc2ccccc2c1)Nc1nc(N2CCOCC2)nc(-n2c(C(F)F)nc3ccccc32)n1` [Compound A26, 4-(2-(difluoromethyl)-1H-benzo[d]imidazol-1-yl)-N-(2-methyl-1-(naphthalen-2-yl)propan-2-yl)-6-morpholino-1,3,5-triazin-2-amine], the IC50 at PI3K alpha was 200 to 500 nM; at PI3K beta, not above 100 nM; on PI3K gamma, 100 to 200 nM; at PI3K delta, 100 to 200 nM; against mTOR it was more than 500 nM. Moreover, the α/β ratio result on PI3K beta is given as “C’”. The α/δ ratio entry on PI3K delta was “D’”. Moreover, the β/δ ratio entry at PI3K delta was “D’”. Moreover, the γ/δ ratio result at PI3K delta is listed as “D’”.

Turning to `CC(Nc1nc(N2CCOCC2)nc(-n2c(C(F)F)nc3ccccc32)n1)c1ccccc1` (centres unmarked) [Compound A1, 4-(2-(difluoromethyl)-1H-benzo[d]imidazol-1-yl)-6-morpholino-N-(1-phenylethyl)-1,3,5-triazin-2-amine], at PI3K alpha, the concentration for half-maximal inhibition (IC50) was more than 500 nM. On PI3K delta, the half-inhibitory concentration (IC50) was not above 100 nM and the α/δ ratio result is “C’”.

Regarding `CC(C)(Nc1nc(N2CCOCC2)nc(-n2c(C(F)F)nc3ccccc32)n1)c1ccc(Cl)cc1` [Compound A8, N-(2-(4-chlorophenyl)propan-2-yl)-4-(2-(difluoromethyl)-1H-benzo[d]imidazol-1-yl)-6-morpholino-1,3,5-triazin-2-amine], the 50% inhibitory concentration (IC50) on PI3K alpha was more than 500 nM. Besides, at PI3K delta, the IC50 was more than 500 nM and the α/δ ratio result was “C’”.

As to `COC(=O)[C@@H](Nc1nc(N2CCOCC2)nc(-n2c(C(F)F)nc3ccccc32)n1)c1ccccc1` [Compound A12, (S)-methyl 2-((4-(2-(difluoromethyl)-1H-benzo[d]imidazol-1-yl)-6-morpholino-1,3,5-triazin-2-yl)amino)-2-phenylacetate], on PI3K alpha, the half-inhibitory concentration (IC50) is more than 500 nM. On PI3K delta, the IC50 fell in the range of 200 to 500 nM and the α/δ ratio entry was “D’”.

As to `CC(C)(Nc1nc(N2CCOCC2)nc(-n2c(C(F)F)nc3ccccc32)n1)c1ccc2ccccc2c1` [Compound A13, 4-(2-(difluoromethyl)-1H-benzo[d]imidazol-1-yl)-6-morpholino-N-(2-(naphthalen-2-yl)propan-2-yl)-1,3,5-triazin-2-amine], the IC50 at PI3K alpha and at PI3K delta was more than 500 nM throughout. On PI3K delta, the α/δ ratio entry is reported as “A’”.

Source of the values: patent US12059422B2 (MEI Pharma, Inc., priority 2011, dated 2024).
